Experimental data: US20020120001A1, “Compositions containing tryptamines, cartenoids and tocotrienols and having synergistic antioxidant effect” (Ashni Naturaceuticals, Inc., priority 2000, published 2002)
pIC50: −log10 of the molar value. In brackets after ≈: the same amount, converted by molar mass.

Test: peroxy radical scavenging activity (BODIPY 581/591 C11 fluorescence with AMVN radical generator, microplate; Median Effect/CalcuSyn analysis)
[1] = Example 2, concentration of the named component in the 1:1 melatonin and natural astaxanthin mixture
[2] = Example 4, component of the melatonin and mixed tocotrienols mixture

Protocol: Measurement of peroxy radical scavenging activity of the individual compounds and combinations was performed essentially as described by Naguib (Analytical Biochemistry(1998) 265:290-298) with modifications to allow the assay to be performed on a microplate. The fatty acid indicator 4,4difluoro-5-(4-phenuyl-1,3-butadienyl)-4-bora-3a-4a-diaza-s-indacene-3-undecanate (BODIPY 581/591 C11) was purchased from Molecular Probes (Eugene, Oreg.). As a peroxy radical generator, 2,2′-azobis-2,4-dimethyl valeronitrile (AMVN) was used and obtained from WAKO Chemicals (Richmond, Va.). All standards were of the highest purity commercially available. Additionally, the solvents were of HPLC grade.
Fluorescence measurements were performed using a Packard FluoroCount microplate fluorometer equipped with a temperature-controlled plate holder. All measurements were preformed in a 96-well polypropylene plate with stirring.
Reactions in octane: butyronitrile (9:1, v/v) were carried out at 30° C. All fluorescence measurements were recorded every 15 minutes for 1 hour at excitation wavelengths of 570 nm, with emission at 620 nm. The net protection (area under the curve, AUC) by the antioxidant sample was calculated using the trapezoid method.
The final reaction mixture (200 μl) for the assay contained 0.5 μg/mL BODIPY 581/591C11 and 0.26 M AMVN in octane:butyronitrile (9:1, v/v). Stock solutions of the test samples were made up in chloroform and 6 μL was added to the reaction mixture to achieve the stated concentrations. The reaction was initiated by the addition of the AMVN fluorometric readings were then recorded every 15 minutes for one hour.
Synergy between melatonin and astaxanthin was assessed using CalcuSyn (BIOSOFT, biosoft.com). This statistical package performs multiple drug dose-effect calculations using the Median Effect methods described by T-C Chou and P. Talaly (Trends Pharmacol. Sci. 4:450-454), hereby incorporated by reference.
Cm is determined from the x-intercept of the median-effect plot. The fraction affected by the concentration of the test material is fa and the fraction unaffected by the concentration is fu (fu=1−fa). The exponent m is the parameter signifying the sigmoidicity or shape of the dose-effect curve. It is estimated by the slope of the median-effect plot.
The median-effect plot is a plot of x=log(C) vs y=log(fa/fu) and is based on the logarithmic form of Chou's median-effect equation. The goodness of fit for the data to the median-effect equation is represented by the linear correlation coefficient r of the median-effect plot.
Synergy of test components was quantified using the combination index (CI) parameter. The CI of Chou-Talaly is based on the multiple drug-effect and is derived from enzyme kinetic models (Chou, T.-C. and Talalay, P. (1977) A simple generalized equation for the analysis of multiple inhibitions of Michaelis-Menten kinetic systems. J. Biol. Chem. 252:6438-6442). The equation determines only the additive effect rather than synergism or antagonism. However, we define synergism as a more than the expected additive effect, and antagonism as a less than the expected additive effect as proposed by Cho and Talalay in 1983 (Trends Pharmacol. Sci. (1983) 4:450-454).
Dose-response curves were described with each test article separately and then in a two-way combination. For the individual dose-response curves, concentrations of melatonin included 100, 500 and 1000 μM, while the concentrations of astaxanthin were 49, 98, 490, and 980 μM.

COc1ccc2[nH]cc(CCNC(C)=O)c2c1 [Melatonin alone, N-acetyl-5-methoxytryptamine]
pIC50 (Example 1, test material alone, 95% confidence interval in parentheses): 3.55 | increase in antioxidant potency (Example 2, component in 1:1 melatonin and natural astaxanthin combination versus alone): 3.2 fold | IC50 [1]: 38 µg/mL | IC75 [1]: 54 µg/mL (≈ 232 µM) | IC90 [1]: 77 µg/mL (≈ 331 µM) | IC50 (Example 2, test material alone): 120 (105-137) μg/mL | pIC50 (Example 3, test material alone): 3.55 | increase in antioxidant potency (Example 4, component in 1:1 melatonin and mixed tocotrienols combination versus alone): 3.1 fold | concentration for 50 percent inhibition of peroxy radical formation [2]: 17 µg/mL | concentration for 75 percent inhibition of peroxy radical formation [2]: 21 µg/mL | concentration for 90 percent inhibition of peroxy radical formation [2]: 26 µg/mL | IC50 (Example 4, test material alone): 53 (25-112) μg test/mL | IC50 (Example 5, test material alone): 53 (25-112) μg test/mL

CC1=C[C@H](O)CC(C)(C)[C@H]1/C=C/C(C)=C/C=C/C(C)=C/C=C/C=C(C)/C=C/C=C(C)/C=C/C1=C(C)C[C@@H](O)CC1(C)C [Lutein alone, lutein]
pIC50 (Example 3, test material alone): 4.21

CC1=C(/C=C/C(C)=C/C=C/C(C)=C/C=C/C=C(C)/C=C/C=C(C)/C=C/C2=C(C)C(=O)[C@@H](O)CC2(C)C)C(C)(C)C[C@H](O)C1=O [Astaxanthin alone, 3, 3′-dihydroxy-β,β-carotene-4, 4′-dieto-β-carotene]
IC75 (Example 1, listed as of test material alone): 185 (107-319) μM | IC50 (Example 5, test material alone): 148 (94-232) μg test/mL

CC1=C(/C=C/C(C)=C/C=C/C(C)=C/C=C/C=C(C)/C=C/C=C(C)/C=C/C2=C(C)CCCC2(C)C)C(C)(C)CCC1 [β-Carotene alone, β-carotene]
pIC50 (Example 3, test material alone): 3.44
